Reference: patent publication US20160115225A1, “Methods of Reducing Methylglyoxal (MGO) Modification of Recombinant Proteins in Cell Culture” (AbbVie Inc., priority 2014, published 2016)

Experiments:
[1] = system: adalimumab producing cell line 2; assay: Lys-C peptide mapping for MGO modification of adalimumab, shake flask culture, cell line 2; format: cell-based; conditions: Example 5; day 11 harvest; control 1.93%
Experimental: For shake flask experiments (Example 4), duplicate 500 mL Corning vented non-baffled shake flasks (200 mL working volume) were used for each condition. Similar to the seed train stage, the production stage shake flasks were kept in incubators maintained at 36° C. and 5% CO2 on shaker platforms that were set at 140 rpm.
Typical trypsin digestion for peptide mapping cleaves a denatured, reduced and alkylated protein at the carboxyl side of the two basic amino acids, lysine and arginine. Methylglyoxal (MGO) is a small molecule metabolite derived as a glycolysis byproduct which can modify arginine residues. […] The challenge of quantifying the amount of MGO modified peptide is that, it is not compared to an equivalent non-modified peptide but rather to two parental cleaved peptides. […] In order to determine a truly accurate direct measurement of an MGO-modified peptide, it is compared to its non-modified counterpart and expressed as a percentage. […] The result is a direct comparison of the same peptide with and without an MGO modification, which provides a high degree of accuracy in quantifying even trace levels of the modified species.
Procedure: Samples were dilated to a nominal concentration of 4 mg/mL. […] Samples were analyzed by LC/MS peptide mapping. […] Eluting peaks were monitored using a Thermo Scientific LTQ-Orbitrap Mass Spectrometer. […]

[2] = system: adalimumab producing cell line 1; assay: Glucose consumption of the culture, cell line 1; format: cell-based; conditions: Example 3; arginine supplementation 4 g/l
Experimental: For the bioreactor (3 L Applikon) experiments (Examples 1, 2 and 3), 3 L, bioreactors (1.5 L working volume) were initiated at 35° C. (cell line 1) and 36° C. (cell line 2), 30% DO, 200 rpm, pH of 7.1. In some of the conditions, pH was ramped down to 6.8 in three days and kept at pH 6.8 thereafter. The inclusion of pH ramp for a particular condition is indicated by the final pH in the experimental design. If the final pH is 7.1, then it indicates no pH ramp was performed, whereas if the final pH is 6.8, a pH ramp was performed on day 3 from pH 7.1 to pH 6.8. In some of the conditions, a temperature shift was performed. When temperature shift was performed, the temperature was lowered to 33° C. Again, the conditions where such a temperature shift was performed can be identified from the final temperature in the experimental design. Cultures were run in extended batch mode with the addition of a desired amount of 40% glucose stock solution was fed based on glucose measurements.
To assess if this reduction in MGO modification in the test conditions also corresponded to lower glucose consumption, the specific glucose consumption rate was calculated across the two phases of culture: average over day 0-day 5 and average over day 5-10 (period post temperature shift) (FIG. 4b). The specific glucose consumption rate in the conditions with 2DDG supplementation was lower in both phases. […] In the period post the temperature shift, up to 50% reduction in specific glucose consumption rate relative to that in the control was observed. Thus, a clear correlation has been observed between reduced glucose consumption and the extent of MGO modification of the peptides.
To further assess the applicability of this strategy, the cumulative glucose consumption levels were also evaluated for these conditions in this study (FIG. 6b). This was calculated by using daily glucose concentration measurements via the offline analyzer and by accounting for glucose feeds when added. […]

Row | SMILES | MGO modification (total) [1] [%] | glucose consumption [2]
1 | N[C@@H](CO)C(=O)O [Test 1, Serine] | 0.68 | 
2 | N=C(N)NCCC[C@H](N)C(=O)O [arginine, Arginine] |  | no additional reduction
